Literature values as cited in patent publication US20120148652A1, “METHOD FOR INCORPORATING MEDICINE INTO A PLANT” (EARTH CHEMICAL CO., LTD., priority 2009, published 2012).

Conditions: 20° C., reference value

Question: With `CC(C)=CC1C(C(=O)OC(C#N)c2cccc(Oc3ccccc3)c2)C1(C)C` (stereo not drawn) [d,d-T-cyphenothrin] as the compound, how does the vapor pressure read?
Answer: Its vapor pressure is < 1.33×10^−7 hPa.

Question: With `CC1(C)[C@H](C=C(Cl)Cl)[C@H]1C(=O)OCc1c(F)c(F)cc(F)c1F` [transfluthrin, Transfluthrin] as the compound, how does the vapor pressure read?
Answer: The vapor pressure was 4.0×10^−6 hPa.
